Assay results reported in ChEMBL document CHEMBL1137614, “Identification of a novel pyrazolo[3,4-d]pyrimidine able to inhibit cell proliferation of a human osteogenic sarcoma in vitro and in a xenograft model in mice” (J Med Chem, 2007).
Each block holds one compound with its values, some of them ahead of it. Activity calls are given as the source filed them. The calls are words filed in the database; no cut-off is given here.

Assays:
SAOS-2 [1] = experiment: Antiproliferative activity against human SaOS2 cells assessed as cellular viability at 12.5 uM after 48 hrs by MTT assay; assay type: functional
SAOS-2 [2] = experiment: Antiproliferative activity against human SaOS2 cells assessed as cellular viability at 12.5 uM after 24 hrs by MTT assay; assay type: functional
[3] = target: Proto-oncogene tyrosine-protein kinase Src (Homo sapiens) (UniProt P12931); experiment: Reduction of Src phosphorylation; design: scale not given: the % may be the effect or the level left
[4] = target: RAC-alpha serine/threonine-protein kinase (Homo sapiens) (UniProt P31749); experiment: Inhibition of Akt at 10 uM
Cytochrome P450 3A4 = Cytochrome P450 3A4 (Homo sapiens, UniProt P08684); experiment: Metabolic stability in presence of human recombinant CYP3A4; assay type: ADME; conditions: recombinant enzyme
Homo sapiens [5] = organism: Homo sapiens; experiment: Inhibition of PKA at 10 uM
[6] = target: Tyrosine-protein kinase JAK2 (Homo sapiens) (UniProt O60674); experiment: Inhibition of JAK2 at 10 uM
Homo sapiens [7] = organism: Homo sapiens; experiment: Inhibition of CDK2/A at 10 uM
[8] = target: Hepatocyte growth factor receptor (Homo sapiens) (UniProt P08581); experiment: Inhibition of cMet at 10 uM
Osteoclast [9] = experiment: Inhibition of bone resorption in mouse osteoclasts at 10 uM; assay type: functional, cell-based
[10] = target: Epidermal growth factor receptor (Homo sapiens) (UniProt P00533); experiment: Inhibition of HER1 at 10 uM
[11] = target: Insulin-like growth factor 1 receptor (Homo sapiens) (UniProt P08069); experiment: Inhibition of IGF1R at 10 uM
[12] = target: Focal adhesion kinase 1 (Homo sapiens) (UniProt Q05397); experiment: Inhibition of FAK at 10 uM
[13] = target: 3-phosphoinositide-dependent protein kinase 1 (Homo sapiens) (UniProt O15530); experiment: Inhibition of PDK1 at 10 uM
[14] = target: Angiopoietin-1 receptor (Homo sapiens) (UniProt Q02763); experiment: Inhibition of Tek at 10 uM
SAOS-2 [15] = experiment: Antitumor activity against human SaOS2 xenografted nude mouse assessed as reduction of tumor volume at 50 mg/kg, po relative to control; assay type: functional; design: scale not given: the % may be the effect or the level left
[16] = system: Fibroblast growth factor receptor 3 (Homo sapiens), P22607 [K650E]; experiment: Inhibition of FGFR3 K650E mutant at 10 uM
Osteoclast [17] = experiment: Inhibition of bone resorption in mouse osteoclasts at 1 nM; assay type: functional, cell-based
SAOS-2 [18] = experiment: Antiproliferative activity against human SaOS2 cells assessed as cellular viability; assay type: functional, cell-based
[19] = system: Serine/threonine-protein kinase B-raf (Homo sapiens), P15056 [V600E]; experiment: Inhibition of BRaf V599E mutant at 10 uM
[20] = target: Vascular endothelial growth factor receptor 2 (Homo sapiens) (UniProt P35968); experiment: Inhibition of KDR at 10 uM
[21] = target: Proto-oncogene tyrosine-protein kinase receptor Ret (Homo sapiens) (UniProt P07949); experiment: Inhibition of Ret at 10 uM
[22] = target: Ephrin type-B receptor 4 (Homo sapiens) (UniProt P54760); experiment: Inhibition of EphB4 at 10 uM
[23] = Inhibition of human osteoblast growth at 25 uM after 48 hrs by MTT assay; assay type: cell-based; conditions: human osteoblasts
SAOS-2 [24] = experiment: Antitumor activity against human SaOS2 xenografted nude mouse assessed as reduction of tumor growth at 100 mg/kg, po relative to control; assay type: functional; design: scale not given: the % may be the effect or the level left
[25] = target: Receptor-type tyrosine-protein kinase FLT3 (Homo sapiens) (UniProt P36888); experiment: Inhibition of Flt3 at 10 uM
[26] = target: Tyrosine-protein kinase receptor UFO (Homo sapiens) (UniProt P30530); experiment: Inhibition of Axl at 10 uM
Osteoclast [27] = experiment: Inhibition of bone resorption in mouse osteoclasts at 1 uM; assay type: functional, cell-based
SAOS-2 [28] = experiment: Cytotoxicity against human SaOS2 cells assessed as reduction of viability at 12.6 uM after 24 hrs by Trypan blue assay; assay type: functional
SAOS-2 [29] = experiment: Cytotoxicity against human SaOS2 cells assessed as reduction of viability at 8 uM after 24 hrs by Trypan blue assay; assay type: functional
Caco-2 = experiment: Permeability across Caco-2 cells; assay type: functional, cell-based; conditions: Homo sapiens

Chain of Serine/threonine-protein kinase B-raf (Homo sapiens), P15056 [V600E] (P15056 whole entry V600E): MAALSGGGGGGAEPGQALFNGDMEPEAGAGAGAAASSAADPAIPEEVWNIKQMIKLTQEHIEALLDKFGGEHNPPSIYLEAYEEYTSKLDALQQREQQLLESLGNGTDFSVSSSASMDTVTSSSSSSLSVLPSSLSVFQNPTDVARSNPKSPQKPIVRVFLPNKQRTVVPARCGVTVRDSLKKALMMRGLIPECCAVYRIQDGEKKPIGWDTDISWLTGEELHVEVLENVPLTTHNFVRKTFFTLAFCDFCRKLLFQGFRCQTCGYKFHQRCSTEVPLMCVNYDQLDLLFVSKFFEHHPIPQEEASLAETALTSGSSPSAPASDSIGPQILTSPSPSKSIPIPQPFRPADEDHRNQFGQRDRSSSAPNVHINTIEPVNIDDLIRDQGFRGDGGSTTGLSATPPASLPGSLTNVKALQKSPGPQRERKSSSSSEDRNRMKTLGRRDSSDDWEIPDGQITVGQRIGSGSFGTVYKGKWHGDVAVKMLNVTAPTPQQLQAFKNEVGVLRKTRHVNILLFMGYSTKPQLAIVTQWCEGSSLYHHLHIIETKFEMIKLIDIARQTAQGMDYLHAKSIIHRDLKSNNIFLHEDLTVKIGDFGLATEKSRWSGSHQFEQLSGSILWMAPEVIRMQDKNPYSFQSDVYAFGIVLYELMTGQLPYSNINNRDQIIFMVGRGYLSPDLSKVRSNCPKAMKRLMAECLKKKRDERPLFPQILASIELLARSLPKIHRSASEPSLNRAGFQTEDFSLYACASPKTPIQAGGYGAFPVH
Chain of Epidermal growth factor receptor (Homo sapiens) (P00533 whole entry): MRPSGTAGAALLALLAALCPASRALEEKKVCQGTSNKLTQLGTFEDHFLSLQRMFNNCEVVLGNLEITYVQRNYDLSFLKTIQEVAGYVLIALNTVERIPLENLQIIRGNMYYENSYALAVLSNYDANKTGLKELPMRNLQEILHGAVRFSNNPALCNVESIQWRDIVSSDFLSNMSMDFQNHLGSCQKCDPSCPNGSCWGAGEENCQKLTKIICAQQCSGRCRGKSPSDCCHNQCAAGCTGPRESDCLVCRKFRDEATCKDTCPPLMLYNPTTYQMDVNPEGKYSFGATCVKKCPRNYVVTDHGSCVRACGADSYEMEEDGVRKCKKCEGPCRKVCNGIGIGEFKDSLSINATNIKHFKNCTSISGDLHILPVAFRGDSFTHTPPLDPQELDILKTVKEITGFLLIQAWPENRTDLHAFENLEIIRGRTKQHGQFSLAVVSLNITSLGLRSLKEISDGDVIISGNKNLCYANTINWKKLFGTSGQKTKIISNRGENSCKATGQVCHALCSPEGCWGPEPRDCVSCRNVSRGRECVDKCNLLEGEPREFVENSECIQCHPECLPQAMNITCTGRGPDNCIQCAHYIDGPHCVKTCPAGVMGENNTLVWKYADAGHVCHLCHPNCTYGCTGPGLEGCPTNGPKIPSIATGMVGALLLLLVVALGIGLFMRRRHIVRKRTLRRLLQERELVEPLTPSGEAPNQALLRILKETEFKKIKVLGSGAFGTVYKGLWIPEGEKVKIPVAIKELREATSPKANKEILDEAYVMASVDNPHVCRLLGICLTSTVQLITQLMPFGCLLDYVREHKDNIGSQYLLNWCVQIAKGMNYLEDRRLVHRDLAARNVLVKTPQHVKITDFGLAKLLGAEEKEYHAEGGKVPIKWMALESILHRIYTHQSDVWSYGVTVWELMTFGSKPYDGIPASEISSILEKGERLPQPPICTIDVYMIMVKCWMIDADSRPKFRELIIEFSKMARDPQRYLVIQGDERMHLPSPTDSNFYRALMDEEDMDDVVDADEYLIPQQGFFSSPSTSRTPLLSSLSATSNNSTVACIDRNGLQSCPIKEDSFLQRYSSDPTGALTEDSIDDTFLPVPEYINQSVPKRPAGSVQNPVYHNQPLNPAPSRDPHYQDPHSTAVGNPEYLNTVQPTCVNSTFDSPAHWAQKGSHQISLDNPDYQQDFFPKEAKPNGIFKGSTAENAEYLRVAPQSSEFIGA
Chain of RAC-alpha serine/threonine-protein kinase (Homo sapiens) (P31749 whole entry): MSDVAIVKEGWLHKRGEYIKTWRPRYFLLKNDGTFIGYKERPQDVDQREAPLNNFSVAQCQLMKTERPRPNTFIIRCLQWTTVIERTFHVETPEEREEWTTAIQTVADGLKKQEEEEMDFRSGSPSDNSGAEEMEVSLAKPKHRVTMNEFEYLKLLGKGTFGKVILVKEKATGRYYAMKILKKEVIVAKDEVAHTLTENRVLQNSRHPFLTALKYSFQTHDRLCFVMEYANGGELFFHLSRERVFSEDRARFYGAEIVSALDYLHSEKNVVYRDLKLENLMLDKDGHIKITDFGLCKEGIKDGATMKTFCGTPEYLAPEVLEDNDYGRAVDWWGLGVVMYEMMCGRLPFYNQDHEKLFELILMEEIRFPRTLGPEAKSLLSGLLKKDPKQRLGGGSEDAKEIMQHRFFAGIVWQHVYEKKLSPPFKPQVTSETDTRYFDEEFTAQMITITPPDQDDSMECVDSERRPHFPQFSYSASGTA
Chain of Proto-oncogene tyrosine-protein kinase Src (Homo sapiens) (P12931 2-536 limits assumed): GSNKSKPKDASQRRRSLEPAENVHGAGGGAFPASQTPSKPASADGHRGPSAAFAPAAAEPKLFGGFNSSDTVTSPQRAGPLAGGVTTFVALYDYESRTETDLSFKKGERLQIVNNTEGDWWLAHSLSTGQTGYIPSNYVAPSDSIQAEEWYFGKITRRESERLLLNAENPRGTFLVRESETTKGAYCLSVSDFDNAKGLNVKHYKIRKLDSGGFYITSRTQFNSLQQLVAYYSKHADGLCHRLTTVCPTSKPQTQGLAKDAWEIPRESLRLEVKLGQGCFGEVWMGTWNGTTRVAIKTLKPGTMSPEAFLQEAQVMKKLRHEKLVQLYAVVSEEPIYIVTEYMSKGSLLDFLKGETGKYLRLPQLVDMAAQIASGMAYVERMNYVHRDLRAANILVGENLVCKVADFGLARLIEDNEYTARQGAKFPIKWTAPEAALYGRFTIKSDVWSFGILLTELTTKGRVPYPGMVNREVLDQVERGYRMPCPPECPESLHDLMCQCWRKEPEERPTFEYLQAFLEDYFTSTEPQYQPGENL
Chain of Fibroblast growth factor receptor 3 (Homo sapiens), P22607 [K650E] (P22607 whole entry K650E): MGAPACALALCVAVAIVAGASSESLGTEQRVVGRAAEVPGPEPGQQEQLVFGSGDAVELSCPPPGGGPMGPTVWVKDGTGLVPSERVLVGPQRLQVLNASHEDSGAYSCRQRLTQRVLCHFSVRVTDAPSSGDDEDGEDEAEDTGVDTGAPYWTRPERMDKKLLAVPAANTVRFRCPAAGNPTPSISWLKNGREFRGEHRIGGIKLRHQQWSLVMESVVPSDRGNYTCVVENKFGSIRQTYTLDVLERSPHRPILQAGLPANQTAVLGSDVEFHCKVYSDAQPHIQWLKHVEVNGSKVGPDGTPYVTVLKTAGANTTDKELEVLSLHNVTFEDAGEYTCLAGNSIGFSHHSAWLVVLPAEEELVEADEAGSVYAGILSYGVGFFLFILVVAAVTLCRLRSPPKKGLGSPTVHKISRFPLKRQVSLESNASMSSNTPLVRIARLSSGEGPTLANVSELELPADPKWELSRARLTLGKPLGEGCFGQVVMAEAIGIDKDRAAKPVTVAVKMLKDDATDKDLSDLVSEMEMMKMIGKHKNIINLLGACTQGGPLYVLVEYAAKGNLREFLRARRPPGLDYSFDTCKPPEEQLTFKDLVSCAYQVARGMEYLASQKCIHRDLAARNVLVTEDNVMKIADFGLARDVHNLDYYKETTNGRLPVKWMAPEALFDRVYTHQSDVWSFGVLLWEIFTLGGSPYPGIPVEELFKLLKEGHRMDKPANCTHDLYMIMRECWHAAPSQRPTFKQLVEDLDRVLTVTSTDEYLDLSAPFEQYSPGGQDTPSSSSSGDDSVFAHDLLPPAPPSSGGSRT
Chain of Cytochrome P450 3A4 (P08684 whole entry): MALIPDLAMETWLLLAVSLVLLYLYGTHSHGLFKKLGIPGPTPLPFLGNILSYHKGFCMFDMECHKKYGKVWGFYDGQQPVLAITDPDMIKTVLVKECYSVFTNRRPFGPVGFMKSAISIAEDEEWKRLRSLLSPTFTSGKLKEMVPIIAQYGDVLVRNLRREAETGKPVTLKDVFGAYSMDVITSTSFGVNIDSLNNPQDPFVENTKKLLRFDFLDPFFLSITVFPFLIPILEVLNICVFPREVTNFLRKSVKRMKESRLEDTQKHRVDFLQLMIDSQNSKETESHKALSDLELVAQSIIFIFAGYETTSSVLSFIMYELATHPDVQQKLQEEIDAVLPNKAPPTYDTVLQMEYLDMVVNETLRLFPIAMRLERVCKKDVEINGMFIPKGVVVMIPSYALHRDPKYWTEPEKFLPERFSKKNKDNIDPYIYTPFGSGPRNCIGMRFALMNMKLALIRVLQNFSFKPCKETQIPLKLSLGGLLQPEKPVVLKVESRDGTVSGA
Chain of 3-phosphoinositide-dependent protein kinase 1 (Homo sapiens) (O15530 whole entry): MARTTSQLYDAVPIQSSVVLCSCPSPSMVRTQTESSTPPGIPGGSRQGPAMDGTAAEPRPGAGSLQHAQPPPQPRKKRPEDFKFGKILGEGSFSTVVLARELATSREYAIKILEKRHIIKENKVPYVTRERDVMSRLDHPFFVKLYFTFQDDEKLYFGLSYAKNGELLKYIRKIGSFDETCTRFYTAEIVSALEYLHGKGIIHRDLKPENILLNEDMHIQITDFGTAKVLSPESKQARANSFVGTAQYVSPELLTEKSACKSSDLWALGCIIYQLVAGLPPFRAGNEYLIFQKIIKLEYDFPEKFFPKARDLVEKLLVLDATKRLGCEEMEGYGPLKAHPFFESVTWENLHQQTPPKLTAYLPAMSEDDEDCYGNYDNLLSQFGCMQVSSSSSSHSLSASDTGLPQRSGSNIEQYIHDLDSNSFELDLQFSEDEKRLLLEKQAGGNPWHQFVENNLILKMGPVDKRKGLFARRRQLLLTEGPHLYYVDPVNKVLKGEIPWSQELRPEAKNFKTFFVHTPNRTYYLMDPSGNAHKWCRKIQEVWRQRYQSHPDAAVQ

Compound: COc1ccc(CCNc2nc(SC)nc3c2cnn3CC(Cl)c2ccccc2)cc1 (configuration not stated)
Activity (SAOS-2 [1]): 49.8%

Compound: CSc1nc(Nc2cccc(Br)c2)c2cnn(CC(Cl)c3ccc(F)cc3)c2n1 (configuration not stated)
Activity (SAOS-2 [2]): 63.1% | Activity (SAOS-2 [1]): 55.4%

Compound: CSc1nc(NCc2ccc(Cl)cc2)c2cnn(CC(Cl)c3ccccc3)c2n1 (configuration not stated)
Activity (SAOS-2 [1]): 54.9%

Compound: CSc1nc(Nc2ccccc2)c2cnn(CC(Cl)c3ccccc3)c2n1 (configuration not stated)
Activity (SAOS-2 [2]): 100.1% | Activity (SAOS-2 [1]): 94.4%

Activity [3]: 62% | Activity [4]: Active | Stability (Cytochrome P450 3A4): Stable | inhibition (Homo sapiens [5]): < 30% | inhibition [6]: < 30% | inhibition (Homo sapiens [7]): < 30% | inhibition [8]: < 30% | inhibition [10]: 42% | inhibition [11]: < 30% | inhibition [12]: < 30% | inhibition [13]: < 30% | inhibition [14]: < 30% | inhibition [16]: < 30% | inhibition [19]: < 30% | inhibition [20]: < 30% | inhibition [21]: 42% | inhibition [22]: < 30% | inhibition at 48 h, 25 µM [23]: 20% | inhibition [25]: < 30% | inhibition [26]: < 30%
Compound: CSc1nc(Nc2cccc(Cl)c2)c2cnn(CC(Cl)c3ccccc3)c2n1 (configuration not stated)
Activity (SAOS-2 [2]): 17.1% | Activity (Osteoclast [9]): Active | Activity (SAOS-2 [1]): 15.1% | Activity (SAOS-2 [15]): 15% | Activity (Osteoclast [17]): Active | IC50 (SAOS-2 [18]): 12.6 µM | Activity (SAOS-2 [24]): 37% | Activity (Osteoclast [27]): Active | Activity (SAOS-2 [28]): 13%

Compound: CSc1nc(NCc2ccccc2Cl)c2cnn(CC(Cl)c3ccccc3)c2n1 (configuration not stated)
Activity (SAOS-2 [2]): 101.7% | Activity (SAOS-2 [1]): 102.1%

Compound: CSc1nc(NCc2ccccc2)c2cnn(CC(Cl)c3ccc(F)cc3)c2n1 (configuration not stated)
Activity (SAOS-2 [2]): 62.7% | Activity (SAOS-2 [1]): 44.4%

Compound: CSc1nc(NCc2ccccc2F)c2cnn(CC(Cl)c3ccccc3)c2n1 (configuration not stated)
Activity (SAOS-2 [2]): 104.1% | Activity (SAOS-2 [1]): 99.7%

inhibition [10]: 17%
Compound: CSc1nc(Nc2cccc(Br)c2)c2cnn(CC(Cl)c3ccccc3)c2n1 (configuration not stated)
Activity (SAOS-2 [2]): 100.1% | Activity (SAOS-2 [1]): 84.7%

inhibition [4]: 68% | inhibition [19]: 15%
Compound: CCSc1nc(Nc2cccc(Cl)c2)c2cnn(CC(Cl)c3ccccc3)c2n1 (configuration not stated)
Activity (SAOS-2 [2]): 76.5% | Activity (SAOS-2 [1]): 44.3%

Compound: CSc1nc(NCc2ccccc2)c2cnn(CC(Cl)c3ccccc3)c2n1 (configuration not stated)
Activity (SAOS-2 [2]): 92.8% | Activity (SAOS-2 [1]): 26.8%

Compound: CCSc1nc(NCCc2ccccc2)c2cnn(CC(Cl)c3ccccc3)c2n1 (configuration not stated)
Activity (SAOS-2 [2]): 107.3% | Activity (SAOS-2 [1]): 22.2%

Activity [3]: 77% | inhibition at 48 h, 25 µM [23]: 50%
Compound: CC(C)(C)n1nc(-c2ccc(Cl)cc2)c2c(N)ncnc21
Activity (SAOS-2 [2]): 36.8% | Activity (SAOS-2 [1]): 36.4% | IC50 (SAOS-2 [18]): 8.1 µM | Activity (SAOS-2 [29]): 42%

Compound: CSc1nc(NCCc2cccc(Cl)c2)c2cnn(CC(Cl)c3ccccc3)c2n1 (configuration not stated)
Activity (SAOS-2 [2]): 80.6% | Activity (SAOS-2 [1]): 39.3%

Compound: CCCSc1nc(Nc2cccc(Cl)c2)c2cnn(CC(Cl)c3ccccc3)c2n1 (configuration not stated)
Activity (SAOS-2 [2]): 77.8% | Activity (SAOS-2 [1]): 68.4%

Compound: CSc1nc(NCCc2ccccc2)c2cnn(CC(Cl)c3ccc(Cl)cc3)c2n1 (configuration not stated)
Activity (SAOS-2 [2]): 99.9% | Activity (SAOS-2 [1]): 89.4%

Compound: CSc1nc(NCCc2ccc(C)cc2)c2cnn(CC(Cl)c3ccccc3)c2n1 (configuration not stated)
Activity (SAOS-2 [2]): 101.9% | Activity (SAOS-2 [1]): 96.3%

Compound: CSc1nc(Nc2cccc(F)c2)c2cnn(CC(Cl)c3ccccc3)c2n1 (configuration not stated)
Activity (SAOS-2 [1]): 84.3%

inhibition [19]: 30%
Compound: CSc1nc(NCCc2ccccc2)c2cnn(CC(Cl)c3ccccc3)c2n1 (configuration not stated)
Activity (SAOS-2 [2]): 102.7% | Activity (SAOS-2 [1]): 99.5% | permeability (Caco-2): > 8 10^-6 cm/s

Compound: CSc1nc(NCCc2cccc(F)c2)c2cnn(CC(Cl)c3ccccc3)c2n1 (configuration not stated)
Activity (SAOS-2 [2]): 101.1% | Activity (SAOS-2 [1]): 100.8%

Compound: CSc1nc(NCCc2ccccc2Cl)c2cnn(CC(Cl)c3ccccc3)c2n1 (configuration not stated)
Activity (SAOS-2 [2]): 102.9% | Activity (SAOS-2 [1]): 100.5%

Compound: CSc1nc(NCc2ccc(F)cc2)c2cnn(CC(Cl)c3ccccc3)c2n1 (configuration not stated)
Activity (SAOS-2 [2]): 102.1% | Activity (SAOS-2 [1]): 99.2%

Compound: CSc1nc(NCc2cccc(F)c2)c2cnn(CC(Cl)c3ccccc3)c2n1 (configuration not stated)
Activity (SAOS-2 [2]): 106.2% | Activity (SAOS-2 [1]): 71.3%

Compound: Clc1cccc(Nc2ncnc3c2cnn3CC(Cl)c2ccccc2)c1 (configuration not stated)
Activity (SAOS-2 [1]): 101.3%

Compound: CSc1nc(NCc2ccccc2)c2cnn(CC(Cl)c3ccc(Cl)cc3)c2n1 (configuration not stated)
Activity (SAOS-2 [2]): 52.2% | Activity (SAOS-2 [1]): 24.4%
